The source of these data is ChEMBL document CHEMBL5233209, “A concise review of recent advances in anti-heart failure targets and its small molecules inhibitors in recent years” (Eur J Med Chem, 2020).

SMILES strings stand for the structures.

A short description of data set [1]: Half life in human. Type of data set: ADME.
The nature of data set [2]: Tmax in human plasma. Type of data set: ADME, cell-free.
Another data set has as its target Neprilysin (Homo sapiens, UniProt P08473). Description: Inhibition of neutral endopeptidase (unknown origin).
Data set [3] concerns the target cGMP-specific 3',5'-cyclic phosphodiesterase (Homo sapiens, UniProt O76074). Description: Inhibition of PDE-5A (unknown origin).

Neprilysin, sequence (P08473 whole entry): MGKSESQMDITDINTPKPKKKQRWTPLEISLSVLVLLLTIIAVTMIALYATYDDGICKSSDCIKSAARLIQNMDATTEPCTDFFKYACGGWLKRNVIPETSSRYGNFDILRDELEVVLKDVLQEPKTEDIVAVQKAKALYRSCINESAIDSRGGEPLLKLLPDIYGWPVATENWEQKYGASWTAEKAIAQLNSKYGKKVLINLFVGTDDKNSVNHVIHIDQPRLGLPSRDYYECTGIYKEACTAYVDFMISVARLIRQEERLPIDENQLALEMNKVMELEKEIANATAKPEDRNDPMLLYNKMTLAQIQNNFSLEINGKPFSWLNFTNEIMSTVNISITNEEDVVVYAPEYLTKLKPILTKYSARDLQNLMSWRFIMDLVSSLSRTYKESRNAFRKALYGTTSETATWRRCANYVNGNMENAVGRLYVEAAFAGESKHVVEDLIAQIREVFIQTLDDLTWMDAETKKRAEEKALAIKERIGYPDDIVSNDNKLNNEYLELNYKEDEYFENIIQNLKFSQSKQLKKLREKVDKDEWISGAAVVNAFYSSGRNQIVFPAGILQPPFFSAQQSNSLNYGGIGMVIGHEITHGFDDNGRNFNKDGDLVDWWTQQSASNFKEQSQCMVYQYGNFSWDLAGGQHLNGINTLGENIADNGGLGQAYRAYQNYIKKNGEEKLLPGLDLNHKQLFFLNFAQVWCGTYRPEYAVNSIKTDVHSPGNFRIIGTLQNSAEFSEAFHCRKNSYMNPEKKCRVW

One may read the half-life as the time needed for the level to fall by half in the phase considered. By Tmax is commonly meant the time from dosing to the highest level. On to `CCCCC(=O)N(Cc1ccc(-c2ccccc2-c2nnn[nH]2)cc1)[C@H](C(=O)O)C(C)C`, for which, in data set [1], the half-life was 12 h. In data set [2], the Tmax turned out to be 1.6 h. Turning to `CCOC(=O)[C@H](C)C[C@@H](Cc1ccc(-c2ccccc2)cc1)NC(=O)CCC(=O)O` [SACUBITRIL], the Tmax in data set [2] came to 0.5 h. For the molecule `CCCCC(=O)N(Cc1ccc(-c2ccccc2-c2nnn[n-]2)cc1)[C@H](C(=O)[O-])C(C)C.CCOC(=O)[C@H](C)C[C@@H](Cc1ccc(-c2ccccc2)cc1)NC(=O)CCC(=O)[O-].O.O.[Na+].[Na+].[Na+]`, the IC50 against Neprilysin worked out at 5 nM. For the molecule `CC(C)=CCc1c(O)c2c(c3c1OC(C)(C)C=C3)CC=C(c1ccc3c(c1)OCCO3)C2=O`, the IC50 in data set [3] amounted to 2.67 µmol.

The molecule `CC(C)=CCC1=C(O)c2c(occ(-c3ccc(O[N+](=O)[O-])cc3)c2=O)C2C=CC(C)(C)OC12` (configuration not stated) displayed an IC50 in data set [3] of 0.5 µmol. In data set [1], `C[C@H](C[C@@H](Cc1ccc(-c2ccccc2)cc1)NC(=O)CCC(=O)O)C(=O)O` [LBQ-657] had a half-life of 21 h.
